PubChem BioAssay (NCI)
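The compound was tested at five concentrations on cells cultured in 96-well plates, with a 48-hour exposure period. GI50: concentration for 50% inhibition of growth. Definition used: TGI = concentration required for complete inhibition of growth.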

Legend:
Experiment in all cases: DTP human tumour cell line panel, 48 h
[1] = tested on: SN12C renal
[2] = tested on: SF-268 CNS
[3] = tested on: SK-MEL-5 melanoma
[4] = tested on: CAKI-1 renal
[5] = tested on: HT29 colon
[6] = tested on: UO-31 renal
[7] = tested on: M14 melanoma
[8] = tested on: NCI-H460 lung
[9] = tested on: SNB-19 CNS
[10] = tested on: SK-MEL-28 melanoma
[11] = tested on: 786-0 renal
[12] = tested on: SNB-75 CNS
[13] = tested on: HCT-15 colon
[14] = tested on: T-47D breast
[15] = tested on: LOX IMVI melanoma
[16] = tested on: HOP-62 NSCLC
[17] = tested on: MDA-MB-231 breast
[18] = tested on: NCI-H522 lung
[19] = tested on: OVCAR-3 ovarian
[20] = tested on: KM12 colon
[21] = tested on: OVCAR-8 ovarian
[22] = tested on: IGROV1 ovarian
[23] = tested on: HL-60(TB) leukemia
[24] = tested on: OVCAR-4 ovarian
[25] = tested on: SF-295 CNS
[26] = tested on: RXF 393 renal
[27] = tested on: NCI-H23 lung
[28] = tested on: K-562 leukemia
[29] = tested on: UACC-257 melanoma
[30] = tested on: PC-3 prostate
[31] = tested on: MDA-MB-435
[32] = tested on: UACC-62 melanoma
[33] = tested on: EKVX NSCLC
[34] = tested on: RPMI-8226 leukemia
[35] = tested on: U251 CNS
[36] = tested on: DU-145 prostate
[37] = tested on: MALME-3M melanoma
[38] = tested on: HCC-2998 colon
[39] = tested on: ACHN renal
[40] = tested on: NCI-H226 lung
[41] = tested on: TK-10 renal
[42] = tested on: NCI/ADR-RES ovarian
[43] = tested on: MCF7 breast
[44] = tested on: SK-MEL-2 melanoma
[45] = tested on: MOLT-4 leukemia
[46] = tested on: OVCAR-5 ovarian
[47] = tested on: COLO 205 colon
[48] = tested on: SK-OV-3 ovarian
[49] = tested on: CCRF-CEM leukemia
[50] = tested on: A498 renal
[51] = tested on: HCT-116 colon
[52] = tested on: SR leukemia
[53] = tested on: HOP-92 NSCLC
[54] = tested on: SW-620 colon
[55] = tested on: HS 578T breast
[56] = tested on: A549 NSCLC
[57] = tested on: BT-549 breast

COc1cc(/C=C\c2cc(/C=C\c3ccc(O)c(OC)c3)n(C(=O)CNc3ccc(Cl)cc3)n2)ccc1O
GI50 [1]: 3.18 µM | TGI [1]: 20.6 µM | GI50 [2]: 2.49 µM | TGI [2]: 14.9 µM | GI50 [3]: 3.24 µM | TGI [3]: 11.3 µM | GI50 [4]: 3.36 µM | TGI [4]: 43.6 µM | GI50 [5]: 3 µM | TGI [5]: 9.27 µM | GI50 [6]: 1.21 µM | TGI [6]: 8.42 µM | GI50 [7]: 2.89 µM | TGI [7]: 15.5 µM | GI50 [8]: 3.17 µM | TGI [8]: 12.5 µM | GI50 [9]: 3.18 µM | TGI [9]: 14.1 µM | GI50 [10]: 2.3 µM | TGI [10]: 11.6 µM | GI50 [11]: 3.03 µM | TGI [11]: 12.8 µM | GI50 [12]: 2.84 µM | TGI [12]: 13 µM | GI50 [13]: 2.54 µM | TGI [13]: 12.2 µM | GI50 [14]: 2.79 µM | TGI [14]: 16 µM | GI50 [15]: 2.17 µM | TGI [15]: 6.95 µM | GI50 [16]: 4.14 µM | TGI [16]: 16.7 µM | GI50 [17]: 4.02 µM | TGI [17]: 45 µM | GI50 [18]: 1.51 µM | TGI [18]: 5.06 µM | GI50 [19]: 2.46 µM | TGI [19]: 8.11 µM | GI50 [20]: 2.64 µM | TGI [20]: 13.1 µM | GI50 [21]: 3.63 µM | TGI [21]: 13.9 µM | GI50 [22]: 2.84 µM | TGI [22]: 14.3 µM | GI50 [23]: 2.07 µM | TGI [23]: 6.68 µM | GI50 [24]: 2.88 µM | TGI [24]: > 100 µM | GI50 [25]: 6.07 µM | TGI [25]: 20.1 µM | GI50 [26]: 2.1 µM | TGI [26]: 4.67 µM | GI50 [27]: 3.35 µM | TGI [27]: 15.8 µM | GI50 [28]: 2.59 µM | TGI [28]: 12.3 µM | GI50 [29]: 5.17 µM | TGI [29]: 17.7 µM | GI50 [30]: 3.38 µM | TGI [30]: 47.9 µM | GI50 [31]: 2.52 µM | TGI [31]: 23.4 µM | GI50 [32]: 2.73 µM | TGI [32]: 9.2 µM | GI50 [33]: 3.48 µM | TGI [33]: 14.5 µM | GI50 [34]: 1.88 µM | TGI [34]: 6.36 µM | GI50 [35]: 2.94 µM | TGI [35]: 11.8 µM | GI50 [36]: 3.25 µM | TGI [36]: 12.3 µM | GI50 [37]: 1.6 µM | TGI [37]: 12 µM | GI50 [38]: 6.01 µM | TGI [38]: 18 µM | GI50 [39]: 0.628 µM | TGI [39]: 14.9 µM | GI50 [40]: 4.39 µM | TGI [40]: 21.6 µM | GI50 [41]: 5.52 µM | TGI [41]: 18.8 µM | GI50 [42]: 3.75 µM | TGI [42]: 41.8 µM | GI50 [43]: 2.34 µM | TGI [43]: 11.9 µM | GI50 [44]: 3.97 µM | TGI [44]: 18.8 µM | GI50 [45]: 2.05 µM | TGI [45]: 15.6 µM | GI50 [46]: 2.78 µM | TGI [46]: 25.4 µM | GI50 [47]: 4.87 µM | TGI [47]: 18.3 µM | GI50 [48]: 3.65 µM | TGI [48]: 13 µM | GI50 [49]: 1.49 µM | TGI [49]: 5.45 µM | GI50 [50]: 7.64 µM | TGI [50]: 20 µM | GI50 [51]: 2.9 µM | TGI [51]: 13.5 µM | GI50 [52]: 0.341 µM | TGI [52]: 7.14 µM | GI50 [53]: 5.65 µM | TGI [53]: 24.2 µM | GI50 [54]: 4.75 µM | TGI [54]: 23.2 µM | GI50 [55]: 4.36 µM | TGI [55]: > 100 µM | GI50 [56]: 3.94 µM | TGI [56]: 16.5 µM | GI50 [57]: 3 µM | TGI [57]: 47 µM
